# Measured values published in patent US8466171B2, “Fused heterocyclic compounds useful as modulators of nuclear hormone receptor function” (Bristol-Myers Squibb Company, priority 2007, dated 2013).
# Changes are numbered by the printed parent chain.
# Experiments:
# [1] = molecular target: T1, androgen receptor (AR) (Homo sapiens, UniProt P10275); test: MDA-MB-453 Androgen Receptor Transactivation Assay; format: cell-based; settings: MDA-MB-453 cells, PSA-Luc reporter, 3 nM DHT, 48 hour incubation
# T1 sequence (P10275 1-920): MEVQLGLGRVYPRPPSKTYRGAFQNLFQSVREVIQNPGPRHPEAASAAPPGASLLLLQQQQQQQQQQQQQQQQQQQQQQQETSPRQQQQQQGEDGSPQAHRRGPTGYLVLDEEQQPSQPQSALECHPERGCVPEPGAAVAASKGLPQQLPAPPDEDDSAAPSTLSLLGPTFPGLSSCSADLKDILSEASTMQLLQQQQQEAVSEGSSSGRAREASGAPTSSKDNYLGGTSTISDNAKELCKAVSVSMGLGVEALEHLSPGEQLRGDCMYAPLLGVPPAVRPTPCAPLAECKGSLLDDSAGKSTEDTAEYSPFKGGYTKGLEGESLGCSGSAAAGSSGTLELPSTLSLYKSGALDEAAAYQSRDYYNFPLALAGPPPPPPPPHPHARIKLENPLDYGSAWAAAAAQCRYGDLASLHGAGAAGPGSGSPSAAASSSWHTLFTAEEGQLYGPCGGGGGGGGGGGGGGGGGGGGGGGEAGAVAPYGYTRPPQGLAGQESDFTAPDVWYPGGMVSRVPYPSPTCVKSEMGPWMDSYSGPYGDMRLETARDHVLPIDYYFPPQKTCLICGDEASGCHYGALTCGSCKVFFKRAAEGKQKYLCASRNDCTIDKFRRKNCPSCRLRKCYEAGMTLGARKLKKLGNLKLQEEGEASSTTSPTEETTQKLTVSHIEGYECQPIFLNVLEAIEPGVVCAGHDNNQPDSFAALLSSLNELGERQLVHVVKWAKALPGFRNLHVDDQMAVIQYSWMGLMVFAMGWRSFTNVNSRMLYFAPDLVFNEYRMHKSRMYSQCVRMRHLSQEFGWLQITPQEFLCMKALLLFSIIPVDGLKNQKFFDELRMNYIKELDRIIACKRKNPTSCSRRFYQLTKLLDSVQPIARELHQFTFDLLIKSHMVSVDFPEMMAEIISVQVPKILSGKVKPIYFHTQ
# Description: Compounds can be tested in a cell based transactivation assay used to measure the antagonism of androgen receptor (AR) transcriptional activity. […] The human breast adenocarcinoma MDA-MB-453 cell line (American Type Culture Collection, Rockville, Md., ATCC#: HTB-131), expressing a functional endogenous wild type AR, was transiently transfected with a reporter plasmid and tested for AR dependent transactivation activity in the absence or presence of test compounds. The pGL3 PSA-Luc reporter plasmid is comprised of the cDNA for the firefly luciferase gene and the upstream promoter sequences containing the androgen response elements (AREs) of the prostate specific antigen (PSA). This plasmid functions as a reporter for the transcription-modulating activity of the AR. In order to detect antagonists, the transactivation assay is conducted in the presence of constant concentration of the natural AR hormone (DHT) to induce a defined reporter signal. Addition of increasing concentrations of the suspected antagonist will decrease the reporter signal (luciferase activity).
# MDA-MB-453 and 22 RV1 cells were maintained in DMEM (Cellgro, Cat. #10-014-CM) or RPMI 1640 (Gibco Cat. #11875-085) respectively and supplemented with 10% FBS (Invitrogen/GIBCO Life Science). Cells were bulk transfected in flasks with 1.3 ug/ml pGL3 PSA-Luc plasmid by using the Lipofectamine 2000 Reagent (Invitrogen, Cat. #11668-019) and serum-free Opti-MEM I media (Invitrogen, Cat#31985-070) according to the manufacturer's optimized conditions. Transfection was conducted at 37° C. with 5% CO2 for 16-18 hours. Following transfection, cells are washed, treated with trypsin, counted, and seeded in a 96-well plate at 30,000 cells per well in DMEM containing 10% Charcoal/Dextran Treated Fetal Bovine Serum (Gibco Cat. #11054-020) for MDA-MB-453 cells or RPMI 1640 (Gibco Cat. #110835) containing 10% FBS (Invitrogen/GIBCO Life Science) for 22 RV1 cells.
# Following transfection, cells were incubated in the absence (blank) or presence (control) of 3 nM DHT (Sigma, Cat. #A-8380) and in the presence or absence of the standard antiandrogen bicalutamide or test compounds ranging in concentrations from 10^−10 to 10^−5M. Duplicates were used for each sample. The compound dilutions were performed by the Tecan Genesis (Tecan, Triangle Park, N.C.). After a 48 hour incubation, luciferase activity was measured using the Steady-Glo Luciferase Assay System (Promega, Cat. #E2550) according to manufacturer's specifications and luminescence was measured on a Packard TopCount (PerkinElmer). For each luciferase sample reading, the percent control (in absence of compounds) was calculated as: % Control=100×[averagesample−averageblank]/[averagecontrol−averageblank] Data was plotted and the IC50 value was defined as the concentration of compound that inhibited 50% of the luciferase activity for the controls.
# [2] = molecular target: T2, wild type AR (Homo sapiens, UniProt P10275); test: AR Binding Assay (whole cell, MDA-MB-453, competition with [3H]-DHT); settings: MDA-MB-453 cells, competition with 2 nM [3H]-DHT, Cheng-Prusoff
# T2 sequence (P10275 1-920 Q868H): T1 sequence (P10275 1-920) with Q868H
# Procedure: For the whole cell binding assay, human breast adenocarcinoma MDA-MB-453 cells (American Type Culture Collection, Rockville, Md., ATCC #: HTB-131), expressing a functional endogenous wild type AR, are grown to near confluency in T-225 tissue culture flasks containing Dulbecco's Modified Eagle Medium (DMEM) (Mediatech CAT #45000-668) supplemented with 10% fetal bovine serum (FBS) (Invitrogen/GIBCO Life Science). In order to remove any endogenous ligand that might be complexed with the receptor in the cells, the tissue culture media is removed and the cells are incubated overnight at 37° C. in serum-free DMEM. The next day, cells are rinsed with magnesium and calcium free Phosphate Buffered Saline (PBS) (Invitrogen/GIBCO Life Science), harvested using Cell Stripper Buffer (Mediatech) and re-suspended in serum-free DMEM to achieve a final assay concentration of 4×10^5 cells/well of a 96-well assay plate. […] After the remaining media is removed, cells are washed three times with PBS and harvested onto UniFilter GF/B plates (PerkinElmer).
# Two replicates are used for each sample. After 90 minutes at room temperature, cells are harvested by filtering through a GF/B filter plate (PerkinElmer) followed by washing with ice-cold 1×PBS (without calcium and magnesium) to remove unbound label. […] After correcting for non-specific binding, IC50 values are determined. The IC50 value is defined as the concentration of competing ligand needed to reduce specific binding by 50%. […] The Ki values are determined by application of the Cheng-Prusoff equation to the IC50 values where: […]
# See e.g., D. Rodbard, Mathematics and Statistics of Ligand Assays: An Illustrated Guide: In: J. Langon and J. J. Clapp, eds., Ligand Assay, Masson Publishing U.S.A., Inc., New York, pp. 45-99 (1981).
smiles,measurement,setting,value
"C[C@]12[C@H](CN(c3ccc(C#N)c(C(F)(F)F)c3)S1(=O)=O)[C@@H]1C=C[C@H]2O1 [Example 4, 4-((1R,2R,6R,7S)-2-methyl-3,3-dioxido-10-oxa-3-thia-4-azatricyclo[5.2.1.0^2,6]dec-8-en-4-yl)-2-(trifluoromethyl)benzonitrile]",IC50,[1],1420 nM
same,Ki,[2],221 nM
"N#Cc1ccc(N2C[C@@H]3[C@@H]([C@@H]4O[C@H]3C[C@@H]4O)S2(=O)=O)cc1C(F)(F)F (single isomer, unassigned) [Example 38ii]",IC50,[1],141 nM
same,Ki,[2],10 nM
"C[C@]12C=C[C@H](O1)[C@@H]1[C@H]2CN(c2ccc(C#N)c(C(F)(F)F)c2)S1(=O)=O (racemic) [Example 21i, rac-4-((1R,2R,6R,7S)-7-methyl-3,3-dioxido-10-oxa-3-thia-4-azatricyclo[5.2.1.0^2,6]dec-8-en-4-yl)-2-(trifluoromethyl)benzonitrile]",IC50,[1],1160 nM
same,Ki,[2],173 nM
"COC(=O)N[C@@H]1C[C@@H]2O[C@H]1[C@@H]1CN(c3ccc(C#N)c(C(F)(F)F)c3)S(=O)(=O)[C@@H]12 (racemic) [Example 26i, methyl rac-((1R,2R,6R,7R,8S)-4-(4-cyano-3-(trifluoromethyl)phenyl)-3,3-dioxido-10-oxa-3-thia-4-azatricyclo[5.2.1.0^2,6]dec-8-yl)carbamate]",IC50,[1],3130 nM
same,Ki,[2],266 nM
"C[C@]12CC[C@](C)(O1)[C@@H]1[C@H]2CN(c2ccc(C#N)c(C(F)(F)F)c2)S1(=O)=O (racemic) [Example 18, rac-4-((1R,2R,6R,7S)-1,7-dimethyl-3,3-dioxido-10-oxa-3-thia-4-azatricyclo[5.2.1.0^2,6]dec-4-yl)-2-(trifluoromethyl)benzonitrile]",IC50,[1],1350 nM
same,Ki,[2],222 nM
N#Cc1ccc(N2C[C@H]3[C@@H]4O[C@@H](C[C@H]4O)[C@H]3S2(=O)=O)cc1C(F)(F)F (racemic) [Example 10iii],IC50,[1],8320 nM
same,Ki,[2],568 nM
"N#Cc1ccc(N2CC3C([C@@H]4CC[C@H]3O4)S2(=O)=O)cc1C(F)(F)F (stereo in doubt) [Example 6, 4-((1S,2R,6R,7R)-3,3-dioxido-10-oxa-3-thia-4-azatricyclo[5.2.1.0^2,6]dec-4-yl)-2-(trifluoromethyl)benzonitrile]",IC50,[1],198 nM
same,Ki,[2],23 nM
"COC(=O)N[C@H]1C[C@@H]2O[C@H]1[C@H]1CN(c3ccc(C#N)c(C(F)(F)F)c3)S(=O)(=O)[C@H]12 [Example 40i, methyl((1S,2R,6R,7S,8S)-4-(4-cyano-3-(trifluoromethyl)phenyl)-3,3-dioxido-10-oxa-3-thia-4-azatricyclo[5.2.1.0^2,6]dec-8-yl)carbamate]",IC50,[1],977 nM
same,Ki,[2],46 nM
"C[C@@]12C=C[C@@H](O1)[C@@H]1CN(c3ccc(C#N)c(C(F)(F)F)c3)S(=O)(=O)[C@@H]12 (racemic) [Example 21ii, rac-4-((1R,2R,6R,7S)-1-methyl-3,3-dioxido-10-oxa-3-thia-4-azatricyclo[5.2.1.0^2,6]dec-8-en-4-yl)-2-(trifluoromethyl)benzonitrile]",IC50,[1],1110 nM
same,Ki,[2],145 nM
N#Cc1ccc(N2C[C@@H]3[C@@H]([C@@H]4C=C[C@H]3O4)S2(=O)=O)cc1C(F)(F)F (racemic) [Example 1ii],IC50,[1],108 nM
same,Ki,[2],29 nM
"N#Cc1ccc(N2C[C@H]3[C@H]([C@H]4O[C@@H]3C[C@H]4F)S2(=O)=O)cc1C(F)(F)F [Example 14, 4-((1S,2R,6R,7R,9R)-9-fluoro-3,3-dioxido-10-oxa-3-thia-4-azatricyclo[5.2.1.0^2,6]dec-4-yl)-2-(trifluoromethyl)benzonitrile]",IC50,[1],144 nM
same,Ki,[2],11 nM
"N#Cc1ccc(N2C[C@H]3[C@@H]4O[C@@H](C[C@H]4O)[C@H]3S2(=O)=O)cc1C(F)(F)F (racemic) [Example 10ii, rac-4-((1R,2R,6R,7R,8S)-8-hydroxy-3,3-dioxido-10-oxa-3-thia-4-azatricyclo[5.2.1.0^2,6]dec-4-yl)-2-(trifluoromethyl)benzonitrile]",IC50,[1],7500 nM
same,Ki,[2],745 nM
